Kd data for two compounds are collected here from publication PMC8179433, “Rational designing of glyco-nanovehicles to target cellular heterogeneity” (Chemical Science, 2021).

Like-named read-outs stand apart in the source and are kept apart here.

By Kd is commonly meant the concentration at which binding is half-saturated. Lower therefore signals a tighter complex.

The target of test [1] is T1, HB-EGF (Homo sapiens, UniProt Q99075).
T1 construct: gene HBEGF
Put plainly: SPR; also competition ELISA against immobilized heparin (IC50 =[…]). In kind it is binding. (In general: In SPR one partner is held on a chip, and binding of the other changes the refractive index at the surface.)

For test [2], the target named is T1, HB-EGF. The description is as above. In kind it is binding. This is another data set of the same source.

T1 sequence (Q99075 63-148): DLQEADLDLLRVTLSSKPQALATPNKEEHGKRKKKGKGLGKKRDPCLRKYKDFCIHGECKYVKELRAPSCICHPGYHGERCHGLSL

As for `CC(=O)N[C@H]1[C@@H](O[C@H]2[C@H](O)[C@@H](O)[C@H](OCCCN)O[C@H]2C(=O)O)O[C@H](COS(=O)(=O)O)[C@@H](O[C@@H]2O[C@@H](C(=O)O)[C@@H](O[C@H]3O[C@H](COS(=O)(=O)O)[C@@H](O)[C@H](O)[C@H]3NC(C)=O)[C@H](O)[C@H]2O)[C@@H]1O` [compound 7, 6-O-S HS tetrasaccharide (7)], binding at HB-EGF [1] was characterised by a dissociation constant (Kd) of 11.1 µM.

As for `CC(=O)N[C@H]1[C@@H](O[C@H]2[C@H](O)[C@@H](O)[C@H](OCCCN)O[C@H]2C(=O)O)O[C@H](COP(=O)(O)O)[C@@H](O[C@@H]2O[C@@H](C(=O)O)[C@@H](O[C@H]3O[C@H](COP(=O)(O)O)[C@@H](O)[C@H](O)[C@H]3NC(C)=O)[C@H](O)[C@H]2O)[C@@H]1O` [compound 8, 6-O-phosphated HS tetrasaccharide (8)], on HB-EGF [2], the Kd came to 11.1 µM.
